Measured values as given in patent US8101761B2, “(E)-N-{3-[1-(8-fluoro-11H-10-OXA-1-AZA-dibenzo [A,D] cyclohepten-5ylidene)-propyl]-phenyl}-methanesulfonamide as glucocorticoid receptor modulator for the treatment of rheumatoid arthritis” (Eli Lilly and Company, priority 2008, dated 2012).

Molecular target: T1, human PR (progesterone receptor) (Homo sapiens, UniProt P06401)
T1 construct: expressed in transfected cells; host or cells: HEK293 (293-PR lysate)
T1 sequence (P06401 1-933): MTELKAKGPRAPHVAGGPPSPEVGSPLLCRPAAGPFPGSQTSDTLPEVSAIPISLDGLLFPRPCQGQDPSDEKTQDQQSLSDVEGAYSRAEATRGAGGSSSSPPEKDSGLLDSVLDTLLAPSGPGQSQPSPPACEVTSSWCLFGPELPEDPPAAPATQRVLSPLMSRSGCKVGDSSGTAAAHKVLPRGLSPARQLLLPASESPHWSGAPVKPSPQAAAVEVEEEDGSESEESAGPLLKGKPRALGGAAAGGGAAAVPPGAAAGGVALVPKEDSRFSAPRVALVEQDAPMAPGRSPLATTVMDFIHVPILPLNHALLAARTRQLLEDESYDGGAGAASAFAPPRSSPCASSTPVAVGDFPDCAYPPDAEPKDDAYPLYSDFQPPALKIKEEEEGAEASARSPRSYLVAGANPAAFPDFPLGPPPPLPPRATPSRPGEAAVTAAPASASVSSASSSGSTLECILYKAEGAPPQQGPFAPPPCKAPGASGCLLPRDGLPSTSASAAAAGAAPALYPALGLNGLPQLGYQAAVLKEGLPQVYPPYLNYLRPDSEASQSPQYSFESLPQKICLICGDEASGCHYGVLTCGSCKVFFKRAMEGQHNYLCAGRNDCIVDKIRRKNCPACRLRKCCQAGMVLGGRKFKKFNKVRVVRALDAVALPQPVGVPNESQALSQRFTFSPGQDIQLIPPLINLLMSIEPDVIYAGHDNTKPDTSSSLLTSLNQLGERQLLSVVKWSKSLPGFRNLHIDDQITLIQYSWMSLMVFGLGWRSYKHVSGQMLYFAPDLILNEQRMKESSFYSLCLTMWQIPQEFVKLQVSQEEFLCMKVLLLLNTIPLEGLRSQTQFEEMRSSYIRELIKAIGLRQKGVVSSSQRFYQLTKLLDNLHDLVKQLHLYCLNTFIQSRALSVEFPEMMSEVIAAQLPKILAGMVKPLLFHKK
Assay: Nuclear hormone receptor competition binding assay, PR
Conditions: HEK293 lysate overexpressing human PR, [3H]-methyltrienolone; mean of n=7
Experimental: Cell lysates from human embryonic kidney HEK293 cells overexpressing human GR (glucocorticoid receptor), AR (androgen receptor), MR (mineralocorticoid receptor), or PR (progesterone receptor) are used for receptor-ligand competition binding assays to determine Ki values.
Briefly, steroid receptor competition binding assays are run in a buffer containing 20 mM Hepes buffer (pH=7.6), 0.2 mM EDTA, 75 mM NaCl, 1.5 mM MgCl2, 20% glycerol, 20 mM sodium molybdate, 0.2 mM DTT (dithiothreitol), 20 μg/ml aprotinin and 20 μg/ml leupeptin. Typically, steroid receptor binding assays include radio-labeled ligands, such as 0.3 nM [^3H]-dexamethasone for GR binding, 0.36 nM [^3H]-methyltrienolone for AR binding, 0.25 nM [^3H]-aldosterone for MR binding, and 0.29 nM [^3H]-methyltrienolone for PR binding, and either 20 μg 293-GR lysate, 22 μg 293-AR lysate, 20 μg 293-MR lysate or 40 μg 293-PR lysate per well. Assays are typically run in 96-well format. Competing test compounds are added at various concentrations ranging from about 0.01 nM to 10 μM. Non-specific binding is determined in the presence of 500 nM dexamethasone for GR binding, 500 nM aldosterone for MR binding, or 500 nM methyltrienolone for AR and PR binding. […] After an incubation of 2 hours, plates are read in a Wallac Microbeta counter. […]

Ki: ~32 nM
SMILES: CC/C(=C1\c2ccc(F)cc2OCc2ncccc21)c1cccc(NS(C)(=O)=O)c1 [Compound (I), (E)-N-{3-[1-(8-Fluoro-11H-10-oxa-1-aza-dibenzo[a,d]cyclohepten-5-ylidene)-propyl]-phenyl}-methanesulfonamide]
